Measurements from article PMC10149208, “A validated HPLC-MS/MS method for simultaneously analyzing curcumin, demethoxycurcumin, bisdemethoxycurcumin, tetra-hydrocurcumin and piperine in human plasma, urine or feces” (Heliyon, 2023).

How the values were obtained:
[1] = 24-h urine concentration after single oral intake of curcuminoid capsules; assay type: in vivo, human; settings: three participants, 4 capsules containing 600 mg curcuminoids, versus untreated sample
Procedure: (§1) One mL TBME was added to the mixture. Feces samples were first diluted 10.000x (four steps of 1:10 dilution) with Bovine Serum Albumin (BSA) 2% in Milli-Q water to reduce matrix effects before 50 μL IS-mix 100uM was added to 100 μL feces dilution. A second 100 μL sample with IS solution was hydrolyzed with 50 μL 20 U/μl β-glucuronidase, vortexed and after this addition incubated for 1 h at 37 °C. Following 1 mL TBME was added. After shaking for 15 min at 480 rpm/min all samples were centrifuged at 18213×g during 1 min. The lower aqueous layer was frozen on dry-iced ethanol and the upper organic layer of approximately 1 mL was decanted into a fresh tube and dried under vacuum using a Speedvac at room temperature. Next, samples were reconstituted with 100 μL MeOH:H2O 60%:40%, vortexed and sonicated for 5 min. After centrifuge at 18213×g during 3 min the supernatant was ready for injection into the HPLC-MS/MS.
(§2) Data from three healthy male participants included from a study researching the bioavailability of curcumin formulations is presented to show the applicability of the method in real-life settings. The participants signed informed consent and followed diet restrictions to avoid any curcumin or piperine intake five days before the visit day to ensure that only curcumin and/or piperine from the curcumin capsules were observed. On the visit day a plasma concentration curve at t = 0, 0.25, 0.50, 0.75, 1, 1.5, 2, 4, 8 and 24 h, collection of 24-h urine and 48-h feces were taken after single oral intake of 4 commercially available soft capsules containing 600 mg curcuminoids (curcumin, demethoxycurcumin and bisdemethoxycurcumin with 95% purity). The trial has been approved by the local institutional ethics committee and has been registered in the Dutch Clinical Trial Register under registration number NL6552. Each individual sample was analyzed according to the method described above.

[2] = Stability of QC samples in plasma during storage in different conditions; assay type: in vitro ADME, human
[3] = Freeze-thaw stability of QC stock solution in DMSO; assay type: physicochemical; settings: stock 10 μM in DMSO at −20 °C
Procedure: Freeze-thaw stability of QC stock solution 10 μM at −20 °C was performed with stock solution that had underwent 0, 1 and 10 freeze-thaw cycles. Three samples per freeze-thaw cycle in MeOH:H2O 60%:40% were prepared at 100 nM and measured in duplicate. Four QC samples per concentration were prepared in plasma. Four replicates per sample were frozen for 60 min at −20 °C. All samples were thawed at room temperature and frozen ones (cycle 1). Per four replicates and concentrations the samples were thawed and frozen further a second, third or fourth time. All samples were thawed at the same time for simultaneous assessment with a calibration curve.

[4] = 48-h feces concentration after single oral intake of curcuminoid capsules; assay type: in vivo, human; settings: 4 capsules containing 600 mg curcuminoids
Procedure: as §1, §2

[5] = Plasma concentration curve after single oral intake of curcuminoid capsules; assay type: in vivo, human; settings: three participants, 4 capsules containing 600 mg curcuminoids, versus untreated sample
Procedure: as §1, §2

[6] = tested on: pancreatic cancer; parameters: method as in PMID 18628464; settings: Phase II; cited from earlier work
[7] = tested on: SW620 cells; parameters: method as in PMID 33812170; settings: 10 μM, incubated for 2 days; cited from earlier work
[8] = tested on: retinal pigmented epithelial cells and retinal endothelial cells; parameters: method as in PMID 30013474; settings: 10 μM; cited from earlier work
[9] = parameters: method as in PMID 9619120; settings: rats; addition of 20 mg/kg piperine; cited from earlier work
[10] = QC 10, Room temperature - light
[11] = QC 50, Room temperature - light
[12] = QC 100, Room temperature - dark
[13] = QC 100, Room temperature - light

Stability sample during storage ([2]; QC 10, AS (reference))	Stability sample during storage ([2]; QC 10, On ice - dark)	Stability sample during storage ([2]; QC 10, Room temperature - dark)	Stability sample during storage [2, 10]	Stability sample during storage ([2]; QC 50, AS (reference))	Stability sample during storage ([2]; QC 50, On ice - dark)	Stability sample during storage ([2]; QC 50, Room temperature - dark)	Stability sample during storage [2, 11]	Stability sample during storage ([2]; QC 100, AS (reference))	Stability sample during storage ([2]; QC 100, On ice - dark)	Stability sample during storage [2, 12]	Stability sample during storage [2, 13]	Freeze-thaw stability, concentration relative to nominal ([3]; QC 100 nM 0x thawed)	Freeze-thaw stability, concentration relative to nominal ([3]; QC 100 nM 1x thawed)	Freeze-thaw stability, concentration relative to nominal ([3]; QC 100 nM 10x thawed)	Percentage in feces of the total expected dosage [4]	Molecule	Urine concentrations after treatment with β-glucuronidase [1]	Plasma peak concentrations after treatment with β-glucuronidase [5]	other results
100%	90%	95%	88%	100%	90%	92%	89%	100%	84%	84%	82%	100%	100.7%	97.1%	13%	O=C(/C=C/c1ccc(O)cc1)CC(=O)/C=C/c1ccc(O)cc1 [Bisdemethoxy-curcumin, bisdemethoxycurcumin]	increase	increase	–
100%	76%	83%	82%	100%	89%	94%	91%	100%	87%	90%	89%	100%	99.8%	96.8%	roughly 21.7%	COc1cc(/C=C/C(=O)CC(=O)/C=C/c2ccc(O)c(OC)c2)ccc1O [Curcumin, curcumin]	increase	increase	Anecdotal beneficial effect, treated patients [6]: two out of 21; Phosphorylation levels of ERK and STAT1 [7]: significantly downregulated; ROS concentration [8]: decrease; TNF-α release [8]: decrease
100%	77%	78%	77%	100%	90%	85%	90%	100%	89%	85%	85%	100%	101.8%	101.7%	–	O=C(/C=C/C=C/c1ccc2c(c1)OCO2)N1CCCCC1 [Piperine-135, piperine]	–	–	Increase of bioavailability of curcumin [9]: 154%

Molecule	Stability sample during storage ([2]; QC 10, AS (reference))	Stability sample during storage ([2]; QC 10, On ice - dark)	Stability sample during storage ([2]; QC 10, Room temperature - dark)	Stability sample during storage [2, 10]	Stability sample during storage ([2]; QC 50, AS (reference))	Stability sample during storage ([2]; QC 50, On ice - dark)	Stability sample during storage ([2]; QC 50, Room temperature - dark)	Stability sample during storage [2, 11]	Stability sample during storage ([2]; QC 100, AS (reference))	Stability sample during storage ([2]; QC 100, On ice - dark)	Stability sample during storage [2, 12]	Stability sample during storage [2, 13]	Freeze-thaw stability, concentration relative to nominal ([3]; QC 100 nM 0x thawed)	Freeze-thaw stability, concentration relative to nominal ([3]; QC 100 nM 1x thawed)	Freeze-thaw stability, concentration relative to nominal ([3]; QC 100 nM 10x thawed)	Percentage in feces of the total expected dosage [4]	Urine concentrations after treatment with β-glucuronidase [1]	Plasma peak concentrations after treatment with β-glucuronidase [5]	other results
COc1cc(CCC(=O)CC(=O)CCc2ccc(O)c(OC)c2)ccc1O [Tetrahydrocurcumin]	100%	96%	89%	88%	100%	99%	93%	93%	100%	94%	88%	87%	100%	101.0%	100.0%	–	increase	increase	Presence in feces [4]: No tetrahydrocurcumin was found
demethoxycurcumin [Demethoxy-curcumin]	100%	93%	95%	87%	100%	96%	100%	93%	100%	91%	95%	89%	100%	102.2%	103.1%	24.7%	increase	increase	–
